# Patent publication US20230000997A1, “PROCESSES OF PREPARING POLYGLUTAMATED ANTIFOLATES AND USES OF THEIR COMPOSITIONS” (L.E.A.F. HOLDINGS GROUP LLC, priority 2019, published 2023)
# Assay: Applicant's experiments with FITC on liposomes (immunostimulant / detectable marker)
# Conditions: reagent attached to liposome exterior
substance,measurement,value
fluorescein isothiocyanate [FITC],function as immunostimulant and detectable marker,serves as both an immunostimulant and a detectable marker
